Experiments:
Assay in all cases: relative viability (nuclei count vs DMSO), 5 days (fraction); higher = more cells survive
Alpelisib + Pemetrexed = compound: Cc1nc(NC(=O)N2CCC[C@H]2C(N)=O)sc1-c1ccnc(C(C)(C)C(F)(F)F)c1 [Alpelisib] + Nc1nc2[nH]cc(CCc3ccc(C(=O)N[C@@H](CCC(=O)O)C(=O)O)cc3)c2c(=O)[nH]1 [Pemetrexed] (partner 0.2 µM)
Outline: (§1)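 After 5 days of treatment, lung cancer cells in 1536-well plates were fixed and stained in a single step (final 0.05% Triton X-100, 1% formaldehyde, 1 ug/ml Hoechst) and their nuclei counted on 4× images. Treatment had been applied by pin tool the day after seeding as one drug alone or as a fixed anchor-drug dose with five library-drug doses (not always all listed) in √10 steps. Relative viability is the nuclei count of treated wells divided by that of vehicle wells, and values are medians of duplicate plates.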

OSI-027 + Pictilisib = compound: COc1cccc2cc(-c3nc([C@H]4CC[C@H](C(=O)O)CC4)n4ncnc(N)c34)[nH]c12 [OSI-027] + CS(=O)(=O)N1CCN(Cc2cc3nc(-c4cccc5[nH]ncc45)nc(N4CCOCC4)c3s2)CC1 [Pictilisib] (partner 1 µM)
Outline: as §1

Vemurafenib + Alpelisib = compound: CCCS(=O)(=O)Nc1ccc(F)c(C(=O)c2c[nH]c3ncc(-c4ccc(Cl)cc4)cc23)c1F [Vemurafenib] + Cc1nc(NC(=O)N2CCC[C@H]2C(N)=O)sc1-c1ccnc(C(C)(C)C(F)(F)F)c1 [Alpelisib] (partner 2 µM)
Outline: as §1

Alpelisib + Trametinib = compound: Cc1nc(NC(=O)N2CCC[C@H]2C(N)=O)sc1-c1ccnc(C(C)(C)C(F)(F)F)c1 [Alpelisib] + CC(=O)Nc1cccc(-n2c(=O)n(C3CC3)c(=O)c3c(Nc4ccc(I)cc4F)n(C)c(=O)c(C)c32)c1 [Trametinib] (partner 0.02 µM)
Outline: as §1

Cell Line	relative viability (Alpelisib + Pemetrexed; first compound 0.04 µM)	relative viability (Alpelisib + Pemetrexed; first compound 0.1265 µM)	relative viability (Alpelisib + Pemetrexed; first compound 0.4 µM)	relative viability (Alpelisib + Pemetrexed; first compound 1.265 µM)	relative viability (Alpelisib + Pemetrexed; first compound 4 µM)	relative viability (OSI-027 + Pictilisib; first compound 0.01 µM)	relative viability (OSI-027 + Pictilisib; first compound 0.03162 µM)	relative viability (OSI-027 + Pictilisib; first compound 0.1 µM)	relative viability (OSI-027 + Pictilisib; first compound 0.3162 µM)	relative viability (OSI-027 + Pictilisib; first compound 1 µM)	relative viability (Vemurafenib + Alpelisib; first compound 0.03162 µM)	relative viability (Vemurafenib + Alpelisib; first compound 0.1 µM)	relative viability (Vemurafenib + Alpelisib; first compound 0.3162 µM)	relative viability (Vemurafenib + Alpelisib; first compound 1 µM)	relative viability (Alpelisib + Trametinib; first compound 0.04 µM)	relative viability (Alpelisib + Trametinib; first compound 0.1265 µM)	relative viability (Alpelisib + Trametinib; first compound 0.4 µM)	relative viability (Alpelisib + Trametinib; first compound 1.265 µM)	relative viability (Alpelisib + Trametinib; first compound 4 µM)
201T	0.328	0.325	0.361	0.305	0.269	0.688	0.683	0.667	0.553	0.541	0.974	0.96	1.05	0.981	0.7	0.723	0.716	0.645	0.586
A549	–	–	–	–	–	0.53	–	0.276	0.14	0.142	0.568	0.713	0.772	0.867	–	–	–	–	–
A-427	0.89	0.87	0.988	0.885	0.845	0.61	0.664	0.699	0.495	0.378	1.02	1.09	1.11	1.14	0.717	0.624	0.681	0.484	0.501
ABC-1	–	–	–	–	–	0.627	0.653	0.632	0.445	0.319	0.916	0.878	1.25	1.14	–	–	–	–	–
BEN	0.723	0.598	0.844	0.794	0.85	0.59	0.472	0.371	0.328	0.272	0.966	0.98	0.793	0.784	0.909	1.17	1.17	0.863	1.03
CAL-12T	1.26	1.14	1.3	0.93	1.03	0.401	0.394	0.315	0.299	0.294	1.07	1.21	1.4	1.33	0.371	0.259	0.378	0.266	0.193
COR-L23	0.188	0.184	0.215	0.2	0.196	0.834	0.877	0.668	0.459	0.171	0.706	0.693	0.687	0.78	0.534	0.484	0.579	0.378	0.353
COR-L 105	1.12	1.18	1.39	0.935	1.13	0.389	0.453	0.358	0.377	0.254	0.936	–	1.11	0.839	0.422	0.458	0.493	0.37	0.447
Calu-6	–	–	–	–	–	0.94	0.762	0.655	0.544	0.319	0.975	0.891	0.817	0.904	–	–	–	–	–
ChaGo-K-1	0.265	0.257	0.263	0.263	0.251	0.665	1.02	0.356	0.492	0.381	–	–	–	–	0.725	0.963	0.856	0.756	0.586

— the supplement of paper PMC10307832
